Results on 4 molecules are retold here after patent publication US20160250228A1 (Acerus Pharmaceuticals Corporation, priority 2011, published 2016).

The conditions of data set [1]: reported normal range, cited from earlier work; for Normal Range Max: maximum; for Normal Range Min: minimum.
Data set [2] is described as follows: Baseline (24-hour pre-dose) and normal ranges of endogenous analytes (free/total testosterone, DHT, estradiol, SHBG). As to conditions: for Pooled Baseline Max / Pooled Baseline Min: baseline range observed, all cohorts pooled; for Pooled Baseline Max / Baseline Max, Dose Cohort 600 (μg) / Baseline Max, Dose Cohort 1200 (μg) / Baseline Max, Dose Cohort 1800 (μg): maximum; for Pooled Baseline Min / Baseline Min, Dose Cohort 600 (μg) / Baseline Min, Dose Cohort 1200 (μg) / Baseline Min, Dose Cohort 1800 (μg): minimum; for Baseline Max, Dose Cohort 600 (μg) / Baseline Min, Dose Cohort 600 (μg) / Baseline Max, Dose Cohort 1200 (μg) / Baseline Min, Dose Cohort 1200 (μg) / Baseline Max, Dose Cohort 1800 (μg) / Baseline Min, Dose Cohort 1800 (μg): baseline range; for Baseline Max, Dose Cohort 600 (μg) / Baseline Min, Dose Cohort 600 (μg): 600 μg dose cohort; for Baseline Max, Dose Cohort 1200 (μg) / Baseline Min, Dose Cohort 1200 (μg): 1200 μg dose cohort; for Baseline Max, Dose Cohort 1800 (μg) / Baseline Min, Dose Cohort 1800 (μg): 1800 μg dose cohort.

Data set [3] in a line: General properties of testosterone: stability. Particulars: in air. The class given is physicochemical.

`C[C@]12CCC(=O)C[C@@H]1CC[C@@H]1[C@@H]2CC[C@]2(C)[C@@H](O)CC[C@@H]12` [Dihydrotestosterone]: in data set [1], the “Normal Range Max” value is 22.00 ng/dL and the “Normal Range Min” value is 4.00 ng/dL. For the same molecule, in data set [2], the “Pooled Baseline Max” value amounted to 32.60 ng/dL; the “Pooled Baseline Min” value came out at 5.02 ng/dL; the “Baseline Max, Dose Cohort 600 (μg)” value amounted to 22.10 ng/dL; the “Baseline Min, Dose Cohort 600 (μg)” value was 5.29 ng/dL. Besides, in data set [2], the “Baseline Max, Dose Cohort 1200 (μg)” value stood at 25.30 ng/dL; the “Baseline Min, Dose Cohort 1200 (μg)” value is on record as 5.04 ng/dL; the “Baseline Max, Dose Cohort 1800 (μg)” value turned out to be 32.60 ng/dL; the “Baseline Min, Dose Cohort 1800 (μg)” value was found to be 5.02 ng/dL.

For `C[C@]12CC[C@@H]3c4ccc(O)cc4CC[C@H]3[C@@H]1CC[C@@H]2O` [Estradiol], in data set [2], the “Pooled Baseline Max” value amounted to 12.2 ng/dL; the “Pooled Baseline Min” value turned out to be 1.7 ng/dL; the “Baseline Max, Dose Cohort 600 (μg)” value stood at 12.2 ng/dL; the “Baseline Min, Dose Cohort 600 (μg)” value was found to be 2.09 ng/dL. Further, in data set [2], the “Baseline Max, Dose Cohort 1200 (μg)” value is 11.9 ng/dL; the “Baseline Min, Dose Cohort 1200 (μg)” value was found to be 1.7 ng/dL; the “Baseline Max, Dose Cohort 1800 (μg)” value turned out to be 9.74 ng/dL; the “Baseline Min, Dose Cohort 1800 (μg)” value was found to be 1.77 ng/dL.

Consider `C[C@]12CC[C@H]3[C@@H](CCC4=CC(=O)CC[C@@]43C)[C@@H]1CC[C@@H]2O` [Testosterone, 17β-Hydroxyandrost-4-en-3-one], for which, in data set [3], the Stability result was “powder. It is odourless, and stable in air”.

B1: SHBG (protein, UniProt P04278 30-402, looked up)
Sex hormone-binding globulin: LRPVLPTQSAHDPPAVHLSNGPGQEPIAVMTFDLTKITKTSSSFEVRTWDPEGVIFYGDTNPKDDWFMLGLRDGRPEIQLHNHWAQLTVGAGPRLDDGRWHQVEVKMEGDSVLLEVDGEEVLRLRQVSGPLTSKRHPIMRIALGGLLFPASNLRLPLVPALDGCLRRDSWLDKQAEISASAPTSLRSCDVESNPGIFLPPGTQAEFNLRDIPQPHAEPWAFSLDLGLKQAAGSGHLLALGTPENPSWLSLHLQDQKVVLSSGSGPGLDLPLVLGLPLQLKLSMSRVVLSQGSKMKALALPPLGLAPLLNLWAKPQGRLFLGALPGEDSSTSFCLNGLWAQGQRLDVDQALNRSHEIWTHSCPQSPGNGTDASH
B1: in data set [1], the “Normal Range Max” value is 114.00 nmol/L and the “Normal Range Min” value is given as 18.00 nmol/L. Moreover, in data set [2], the “Pooled Baseline Max” value turned out to be 137.00 nmol/L; the “Pooled Baseline Min” value is listed as 15.30 nmol/L; the “Baseline Max, Dose Cohort 600 (μg)” value turned out to be 102.00 nmol/L; the “Baseline Min, Dose Cohort 600 (μg)” value amounted to 15.30 nmol/L. Further, in data set [2], the “Baseline Max, Dose Cohort 1200 (μg)” value is 86.70 nmol/L; the “Baseline Min, Dose Cohort 1200 (μg)” value is given as 16.00 nmol/L; the “Baseline Max, Dose Cohort 1800 (μg)” value is listed as 137.00 nmol/L; the “Baseline Min, Dose Cohort 1800 (μg)” value came out at 25.20 nmol/L.
